These results are taken from patent US20250026765A1, “SPIROHETEROCYCLE DERIVATIVE HAVING SEROTONIN RECEPTOR BINDING ACTIVITY” (Shionogi & Co., Ltd., priority 2021, published 2025).

The term Ki denotes a dissociation constant, usually derived from enzyme kinetics or from competition with a known ligand.

In test [1] the target is human recombinant 5-HT2A receptor (Homo sapiens (Human), UniProt P28223). Put plainly: 5-HT2A receptor binding inhibition test ([3H]-Ketanserin). As to conditions: Jump-In HEK cell membrane, 25° C. 1.5 hours. In a few lines: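 Membranes from Jump-In HEK cells expressing the receptor were incubated with [3H]-ketanserin at about its Kd (from Scatchard analysis) in Tris-HCl pH 7.4 buffer for 1.5 h at 25° C, then filtered and counted. Non-specific binding was defined with 500 μmol/L serotonin, and Ki was taken from dose-response curves.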

Test [2] concerns the target human recombinant 5-HT2C receptor (Homo sapiens (Human), UniProt P28335). Put plainly: 5-HT2C receptor binding inhibition test ([3H]-Mesulergine). As to conditions: Jump-In HEK cell membrane, 37° C. 2 hours. In a few lines:
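Radioligand displacement on HEK membranes expressing human recombinant 5-HT2C (0.5 μg/well), [3H]-mesulergine near its Kd, in pH 7.4 Tris-HCl buffer with NaCl, MgCl2, KCl, CaCl2 and 0.1% BSA, 2 h at 37° C. Bound radioactivity measured after GF/B filtration; non-specific binding defined with 500 μmol/L serotonin, Ki from dose-response curve.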

[3] abbreviates: read-out: human serotonin 5-HT2A receptor binding activity Ki.
Where [4] appears, read: read-out: human serotonin 5-HT2C receptor binding activity Ki.

Read-outs that look alike come from different tables or passages of the source. A value given as a limit tells only on which side of the number the result lay.

Sequence of human recombinant 5-HT2C receptor (P28335 33-458): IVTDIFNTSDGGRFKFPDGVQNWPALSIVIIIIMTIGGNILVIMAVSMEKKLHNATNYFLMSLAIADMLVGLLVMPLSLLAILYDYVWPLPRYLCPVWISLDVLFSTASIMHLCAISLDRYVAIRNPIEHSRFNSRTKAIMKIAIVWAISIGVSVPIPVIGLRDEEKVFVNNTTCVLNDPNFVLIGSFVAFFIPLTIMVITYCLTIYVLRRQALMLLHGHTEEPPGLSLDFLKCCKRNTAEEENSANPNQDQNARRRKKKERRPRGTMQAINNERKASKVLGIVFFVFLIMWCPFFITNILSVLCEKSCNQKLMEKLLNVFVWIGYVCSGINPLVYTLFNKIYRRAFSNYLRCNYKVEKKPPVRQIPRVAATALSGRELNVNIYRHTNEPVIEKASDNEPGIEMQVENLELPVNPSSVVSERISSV
Sequence of human recombinant 5-HT2A receptor (P28223 whole entry): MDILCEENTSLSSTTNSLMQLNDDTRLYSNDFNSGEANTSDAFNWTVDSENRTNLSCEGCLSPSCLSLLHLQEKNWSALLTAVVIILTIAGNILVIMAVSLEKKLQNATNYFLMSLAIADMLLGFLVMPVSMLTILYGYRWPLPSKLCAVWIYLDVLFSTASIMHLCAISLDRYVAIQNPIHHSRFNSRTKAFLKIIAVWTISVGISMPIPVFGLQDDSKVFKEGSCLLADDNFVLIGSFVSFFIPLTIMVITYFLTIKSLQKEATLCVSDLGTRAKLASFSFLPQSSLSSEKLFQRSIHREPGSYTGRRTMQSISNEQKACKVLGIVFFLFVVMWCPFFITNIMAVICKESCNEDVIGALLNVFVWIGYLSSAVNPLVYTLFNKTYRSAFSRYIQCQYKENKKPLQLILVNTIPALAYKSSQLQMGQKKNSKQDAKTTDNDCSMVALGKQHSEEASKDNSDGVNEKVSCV

As to `Cc1nc(CN(Cc2ccc(OCC3CCC3)cc2)C2=NOC3(CCN(C)CC3)N2)co1` [Compound I-083], the inhibitory constant (Ki) in test [1] (read-out: h-5-HT2A Ki) and in test [2] (read-out: h-5-HT2C Ki) was less than 0.01 µM throughout.

As to `Cc1nc(CN(Cc2ccc(OCC3CC(F)(F)C3)cc2)C2=NOC3(CCN(C)CC3)N2)co1` [Compound I-084], the inhibition constant (Ki) in test [1] (read-out: h-5-HT2A Ki) and in test [2] (read-out: h-5-HT2C Ki) was less than 0.01 µM in each case.

With `CN1CCC2(CC1)NC(N(Cc1ccc(OCC(F)(F)F)cc1)Cc1coc(C3CC3)n1)=NO2` [Compound I-086], the inhibition constant (Ki) in test [1] (read-out: h-5-HT2A Ki) and in test [2] (read-out: h-5-HT2C Ki) was less than 0.01 µM in each case.

Regarding `CCCc1ccc(CN(Cc2coc(C)n2)C2=NOC3(CCN(C)CC3)N2)cc1` [Compound I-087], the Ki in test [1] (setting [3]) was found to be 0.00111 µM; in test [2] (setting [4]), 0.000787 µM.

Take `COc1ccc2oc(CN(Cc3coc(C)n3)C3=NOC4(CCN(C)CC4)N3)nc2c1` [Compound I-088]: the Ki in test [1] (read-out: h-5-HT2A Ki) and in test [2] (read-out: h-5-HT2C Ki) was 0.01 to 0.1 µM throughout.

As to `Cc1nc(CN(Cc2nc3cc(Cl)ccc3o2)C2=NOC3(CCN(C)CC3)N2)co1` [Compound I-089], the Ki in test [1] (setting [3]) came out at 0.00149 µM; in test [2] (setting [4]), 0.00546 µM.

On to `Cc1nc(CN(Cc2cn3ccccc3n2)C2=NOC3(CCN(C)CC3)N2)co1` [Compound I-091], for which the values for the Ki in test [1] (read-out: h-5-HT2A Ki) and in test [2] (read-out: h-5-HT2C Ki) were 0.01 to 0.1 µM and 0.1 to 0.5 µM, respectively.

As to `CCCCOc1ccc(CN(Cc2coc(C)n2)C2=NOC3(CCN(C)CC3)N2)c(Br)c1` [Compound I-092], the inhibitory constant (Ki) in test [1] (read-out: h-5-HT2A Ki) and in test [2] (read-out: h-5-HT2C Ki) was less than 0.01 µM each time.

`Cc1nc(CN(Cc2ccc3c(c2)nnn3C)C2=NOC3(CCN(C)CC3)N2)co1` [Compound I-093]: the inhibition constant (Ki) in test [1] (read-out: h-5-HT2A Ki) and in test [2] (read-out: h-5-HT2C Ki) was 0.1 to 0.5 µM each time.

Turning to `Cc1nc(CN(Cc2nc3ccccc3o2)C2=NOC3(CCN(C)CC3)N2)co1` [Compound I-094], the Ki in test [1] (read-out: h-5-HT2A Ki) and in test [2] (read-out: h-5-HT2C Ki) was 0.01 to 0.1 µM in each case.

With `Cc1nc(CN(Cc2cnc3ccccc3c2)C2=NOC3(CCN(C)CC3)N2)co1` [Compound I-095], the Ki in test [1] (read-out: h-5-HT2A Ki) fell in the range of 0.01 to 0.1 µM; in test [2] (read-out: h-5-HT2C Ki), 0.1 to 0.5 µM.

On to `Cc1nc(CN(Cc2ccc3ncccc3c2)C2=NOC3(CCN(C)CC3)N2)co1` [Compound I-096], for which the values for the Ki in test [1] (read-out: h-5-HT2A Ki) and in test [2] (read-out: h-5-HT2C Ki) were less than 0.01 µM and 0.01 to 0.1 µM, respectively.

`Cc1nc(CN(Cc2ccc3ccccc3c2)C2=NOC3(CCN(C)CC3)N2)co1` [Compound I-097]: the Ki in test [1] (read-out: h-5-HT2A Ki) and in test [2] (read-out: h-5-HT2C Ki) was less than 0.01 µM in each case.

For the compound `Cc1nc(CN(Cc2nc3ccccc3s2)C2=NOC3(CCN(C)CC3)N2)co1` [Compound I-098], the Ki is less than 0.01 µM in test [1] (read-out: h-5-HT2A Ki) and 0.01 to 0.1 µM in test [2] (read-out: h-5-HT2C Ki).

Regarding `Cc1nc(CN(Cc2cc3ccccc3o2)C2=NOC3(CCN(C)CC3)N2)co1` [Compound I-099], the Ki in test [1] (setting [3]) is 0.00096 µM; in test [2] (setting [4]), 0.00308 µM.

For `CC(C)COc1ccc(CN(Cc2ccn(C3CC3)n2)C2=NOC3(CCN(C)CC3)N2)cc1` [Compound I-100], the Ki in test [1] (read-out: h-5-HT2A Ki) was less than 0.01 µM; in test [2] (read-out: h-5-HT2C Ki), 0.01 to 0.1 µM.

As to `Cc1ccc2cc(CN(Cc3coc(C)n3)C3=NOC4(CCN(C)CC4)N3)sc2c1` [Compound I-101], the Ki in test [1] (read-out: h-5-HT2A Ki) and in test [2] (read-out: h-5-HT2C Ki) was less than 0.01 µM in each case.

For `Cc1nc(CN(Cc2cc3ccc(Br)cc3s2)C2=NOC3(CCN(C)CC3)N2)co1` [Compound I-102], the inhibition constant (Ki) in test [1] (read-out: h-5-HT2A Ki) and in test [2] (read-out: h-5-HT2C Ki) was less than 0.01 µM in each case.

Take `CN1CCC2(CC1)NC(N(Cc1cnn(C)n1)Cc1ccc(OCC(F)(F)C(F)(F)F)cc1F)=NO2` [Compound I-103]: the Ki in test [1] (read-out: h-5-HT2A Ki) and in test [2] (read-out: h-5-HT2C Ki) was less than 0.01 µM in each case.

Turning to `CC(C)COc1ccc(CN(Cc2cnn(C)n2)C2=NOC3(CCN(C)CC3)N2)c(F)c1` [Compound I-106], the Ki in test [1] (read-out: h-5-HT2A Ki) and in test [2] (read-out: h-5-HT2C Ki) was less than 0.01 µM each time.

Take `CC(C)COc1ccc(CN(Cc2cnn(C)n2)C2=NOC3(CCN(C)CC3)N2)cc1F` [Compound I-107]: the inhibition constant Ki in test [1] (read-out: h-5-HT2A Ki) and in test [2] (read-out: h-5-HT2C Ki) was less than 0.01 µM in each case.

Consider `CN1CCC2(CC1)NC(N(Cc1coc(C3CC3)n1)Cc1ccc(OCC(F)(F)F)cc1F)=NO2` [Compound I-108], for which the inhibition constant (Ki) in test [1] (read-out: h-5-HT2A Ki) and in test [2] (read-out: h-5-HT2C Ki) was less than 0.01 µM each time.

As to `CCCc1ccc(CN(Cc2coc(C)n2)C2=NOC3(CCN(C)CC3)N2)c(F)c1` [Compound I-109], the Ki in test [1] (read-out: h-5-HT2A Ki) and in test [2] (read-out: h-5-HT2C Ki) was less than 0.01 µM in each case.

Regarding `CCCc1ccc(CN(Cc2coc(C)n2)C2=NOC3(CCN(C)CC3)N2)cc1F` [Compound I-110], the Ki in test [1] (read-out: h-5-HT2A Ki) and in test [2] (read-out: h-5-HT2C Ki) was less than 0.01 µM in each case.

Regarding `CCCCOc1ccc(CN(Cc2cnn(C)n2)C2=NOC3(CCN(C)CC3)N2)cc1F` [Compound I-111], the Ki in test [1] (read-out: h-5-HT2A Ki) and in test [2] (read-out: h-5-HT2C Ki) was less than 0.01 µM each time.

Turning to `CCCCOc1ccc(CN(Cc2cnn(C)n2)C2=NOC3(CCN(C)CC3)N2)c(F)c1` [Compound I-112], the Ki in test [1] (read-out: h-5-HT2A Ki) and in test [2] (read-out: h-5-HT2C Ki) was less than 0.01 µM throughout.

For the compound `CN1CCC2(CC1)NC(N(Cc1ccc(OCC(F)(F)F)c(F)c1)Cc1coc(C3CC3)n1)=NO2` [Compound I-116], the Ki in test [1] (read-out: h-5-HT2A Ki) and in test [2] (read-out: h-5-HT2C Ki) was less than 0.01 µM each time.

Consider `Cc1nc(CN(Cc2ccc(OCC(C)C)cc2)C2=NOC3(CCN(C)CC3)N2)c(C)o1` [Compound I-117], for which the inhibition constant Ki in test [1] (read-out: h-5-HT2A Ki) and in test [2] (read-out: h-5-HT2C Ki) was 0.01 to 0.1 µM throughout.

Take `CC(C)COc1ccc(CN(Cc2coc(-c3ccccc3)n2)C2=NOC3(CCN(C)CC3)N2)cc1` [Compound I-118]: the Ki in test [1] (read-out: h-5-HT2A Ki) and in test [2] (read-out: h-5-HT2C Ki) was 0.1 to 0.5 µM each time.

For `Cc1nc(CN(Cc2ccc(Cc3ccccc3)cc2)C2=NOC3(CCN(C)CC3)N2)co1` [Compound I-119], the Ki in test [1] (read-out: h-5-HT2A Ki) and in test [2] (read-out: h-5-HT2C Ki) was less than 0.01 µM throughout.

On to `COc1ccc(CN(Cc2coc(C)n2)C2=NOC3(CCN(C)CC3)N2)cn1` [Compound I-120], for which the Ki in test [1] (read-out: h-5-HT2A Ki) and in test [2] (read-out: h-5-HT2C Ki) was 0.01 to 0.1 µM each time.

Consider `COc1ccc(CN(Cc2coc(C)n2)C2=NOC3(CCN(C)CC3)N2)nc1` [Compound I-121], for which the Ki in test [1] (read-out: h-5-HT2A Ki) and in test [2] (read-out: h-5-HT2C Ki) was 0.01 to 0.1 µM each time.

Turning to `Cc1nc(CN(Cc2csc3ccccc23)C2=NOC3(CCN(C)CC3)N2)co1` [Compound I-122], the Ki in test [1] (read-out: h-5-HT2A Ki) and in test [2] (read-out: h-5-HT2C Ki) was less than 0.01 µM in each case.

In the case of `Cc1nc(CN(Cc2cc3ccccc3s2)C2=NOC3(CCN(C)CC3)N2)co1` [Compound I-123], the Ki in test [1] (read-out: h-5-HT2A Ki) and in test [2] (read-out: h-5-HT2C Ki) was less than 0.01 µM in each case.

For the compound `CCOCc1ccc(CN(Cc2coc(C)n2)C2=NOC3(CCN(C)CC3)N2)cc1` [Compound I-124], the inhibition constant Ki in test [1] (read-out: h-5-HT2A Ki) and in test [2] (read-out: h-5-HT2C Ki) was 0.01 to 0.1 µM in each case.

With `CCCOc1ccc(CN(Cc2coc(C)n2)C2=NOC3(CCN(C)CC3)N2)c(Cl)c1` [Compound I-126], the Ki in test [1] (read-out: h-5-HT2A Ki) and in test [2] (read-out: h-5-HT2C Ki) was less than 0.01 µM in each case.

Consider `Cc1nc(CN(Cc2ccc(OCC(C)C)c(F)c2)C2=NOC3(CCN(C)CC3)N2)co1` [Compound I-127], for which the Ki in test [1] (read-out: h-5-HT2A Ki) and in test [2] (read-out: h-5-HT2C Ki) was less than 0.01 µM throughout.

Consider `CCCOc1ccc(CN(Cc2coc(C)n2)C2=NOC3(CCNCC3)N2)c(Cl)c1` [Compound I-129], for which the Ki in test [1] (read-out: h-5-HT2A Ki) and in test [2] (read-out: h-5-HT2C Ki) was less than 0.01 µM each time.

`Cc1nc(CN(Cc2ccc(OCC(C)C)c(F)c2)C2=NOC3(CCNCC3)N2)co1` [Compound I-130]: the inhibition constant Ki turned out to be 0.00129 µM in test [1] (setting [3]) and 0.000535 µM in test [2] (setting [4]).

In the case of `Cc1nc(CN(Cc2ccc(OCC(C)C)cc2F)C2=NOC3(CCNCC3)N2)co1` [Compound I-131], the Ki in test [1] (read-out: h-5-HT2A Ki) and in test [2] (read-out: h-5-HT2C Ki) was less than 0.01 µM throughout.

With `CN1CCC2(CC1)NC(N(Cc1ccc(OCC(F)(F)F)cc1)Cc1coc(CF)n1)=NO2` [Compound I-132], the Ki in test [1] (read-out: h-5-HT2A Ki) and in test [2] (read-out: h-5-HT2C Ki) was less than 0.01 µM in each case.

Take `CCCCc1ccc(CN(Cc2cnn(C)n2)C2=NOC3(CCN(C)CC3)N2)cc1` [Compound I-133]: the Ki in test [1] (read-out: h-5-HT2A Ki) and in test [2] (read-out: h-5-HT2C Ki) was less than 0.01 µM throughout.

For the compound `CCCCOc1ccc(CN(Cc2coc(C)n2)C2=NOC3(CCNCC3)N2)cc1` [Compound I-134], the inhibition constant Ki in test [1] (read-out: h-5-HT2A Ki) and in test [2] (read-out: h-5-HT2C Ki) was less than 0.01 µM in each case.
